Series [1] can be described thus: Cytotoxicity to peritoneal cells, MTT method. In kind it is cell-based, Swiss mice. The settings on record: both sexes, Swiss, mouse, peritoneal cells (>99% macrophages), 6 h incubation, read-out: Estimated CC50 peritoneal cell 6 h. The procedure: To obtain peritoneal cells, six adult Swiss mice (male and female), weighing 30 ± 6 g, were used. During the experiments, the animals were kept in the Faculty of Medicine, University of Brasilia under ambient temperature, light/dark cycle of 12 h, fed with balanced diet and water ad libitum. The study was approved by the Ethics Committee on Animal Use (CEUA) of the Institute of Biological Sciences at University of Brasilia (Doc. no. 22199/2014).
To assess inhibitory or cytotoxic concentrations of the compounds (1–5), able to eliminate 50% of the cells in the cultures of L. amazonensis (IC50) and cytotoxic concentrations (CC50) in the cultures of peritoneal cell, MTT [3-(4,5-dimethylthiazol-2-yl)-2,5-diphenyltetrazolium bromide] (Sigma-Aldrich) method was used. This method evaluates the cell viability by the activity of mitochondrial succinate dehydrogenase enzyme that cleaves the tetrazolium salt to form formazan crystals in living cells. […]
Initially, cells obtained by washing the peritoneal cavity of the mice with 10 mL of PBS pH 7.2 at 4 °C, centrifuged at 400 g for 10 min and suspended with 1 mL of RPMI 1640 medium were quantified at Neubauer chamber with 0.05% of nigrosin solution. […] The formazan crystals were solubilized with 50 μL of DMSO/well and the absorbance obtained in spectrophotometer (Spectra Max® Plus 384) with 550 nm. […]

The test system of series [2] is P. falciparum-infected erythrocytes. Briefly: Growth inhibition of P. falciparum-infected erythrocytes, optical microscopy. The class given is cell-based. The settings on record: Plasmodium falciparum, Erythrocyte; for inhibition at 0.008 µg/mL: positive control, 8 ng/mL. The procedure: The Pf/Unb169 strain, kept under cryopreservation was culture together with O^+ erythrocytes in RPMI 1640 medium, supplemented with hypoxanthine (0.25 mg/dL), 10% of human serum, and gentamicin ([…]), at 37 °C in air with 5% CO2. For the assays, a suspension with 3% of hematocrit and 0.6% of infected erythrocytes was prepared.
To assess inhibitory or cytotoxic concentrations of the compounds (1–5), able to eliminate 50% of the cells in the cultures of L. amazonensis (IC50) and cytotoxic concentrations (CC50) in the cultures of peritoneal cell, MTT [3-(4,5-dimethylthiazol-2-yl)-2,5-diphenyltetrazolium bromide] (Sigma-Aldrich) method was used. This method evaluates the cell viability by the activity of mitochondrial succinate dehydrogenase enzyme that cleaves the tetrazolium salt to form formazan crystals in living cells. For the cultures of P. falciparum-infected erythrocytes, the IC50 were determined by optical microscopy. The concentrations for the compounds tested were calculated in μg/mL (ranging from 0 to 256 μg/mL), as well their equivalent in […], being: 1 (0 to 806.7 μM), 2 (0 to 833.0 μM), 3 (0 to 923.0 μM), 4 (0 to 832.8 μM) and 5 (0 to 923.1 μM).
A suspension of O^+ human erythrocytes (3% hematocrit and 0.6% of infected erythrocytes) was incubated at 37 °C with 5% of CO2 in air, for 48 or 72 h in RPMI 1640 medium supplemented with 10% human serum, in triplicate, in 96 wells plate, with different concentrations (0 to 256 μg/mL) of compounds (1–5). As positive control, infected erythrocytes were incubated with 8 ng/mL of artesunate (Artemix Ativus, São Paulo, Brazil) and, as negative control, they were incubated exclusively with the diluent (complete RPMI 1640 medium); 50% of the medium, for the cultures incubated for 72 h, was exchanged after 48 h, at the same concentrations as before. After that, 150 μL of the supernatant of the cultures were discarded, and a drop of suspension distended onto slides for microscopy, dried and fixed with methanol, was stained for 15 min with 10% of Giemsa solution (PBS, pH 6.9). The erythrocytes (1000 cells/slide) were analyzed by a single observer with optical microscopy and the results were expressed in percentage of infected cells.
The SI for each amide (1–5) was obtained by dividing the concentration able to eliminate 50% of peritoneal cells (CC50) by the concentration able to inhibit the growth of 50% of the protozoa (IC50). Compounds which presented SI greater than 10 were considered potentially microbicides and safe for the host cells (Bézivin et al. [2003]).

Series [3] relates to L. amazonensis promastigotes. Briefly: Inhibition of L. amazonensis promastigotes, MTT method. The class given is cell-based, Leishmania amazonensis. Here is the method: The MHOM/BR/pH8 strain was transferred to the NNN solid medium (Novy-MacNeal-Nicolle) for 48 h at 24 °C.
(Sigma-Aldrich) method was used. This method evaluates the cell viability by the activity of mitochondrial succinate dehydrogenase enzyme that cleaves the tetrazolium salt to form formazan crystals in living cells. For the cultures of P. falciparum-infected erythrocytes, the IC50 were determined by optical microscopy.
Then, 10 μL of MTT solution (5 mg/mL) was added to all wells and the cultures were re-incubated at the same condition for 4 h, but protected from light. […] The results were expressed in percentage.
In general terms: Tetrazolium assays rely on reduction of a dye to a coloured formazan, in cell work by metabolically active cells.

“And” between values parts separate entries of the source, which are not always exact repeats. Equal values may be shown once. Read-outs that look alike come from different tables or passages of the source.

In the case of `COc1cc(/C=C/C(=O)N2CCC=CC2=O)cc(OC)c1OC` [Compound 1, 1-[(E)-3-(3,4,5-trimethoxyphenyl)prop-2-enoyl]-2,3-dihydropyridin-6-one], the CC50 at 6 h in series [1] is 731 µM and 232 µg/mL. Moreover, the IC50 in series [2] (48 h, read-out: Estimated IC50 P. falciparum 48 h) is 19.5 µM and 6.2 µg/mL; in series [2] (72 h, read-out: Estimated IC50 P. falciparum 72 h), 10.1 µM and 3.2 µg/mL; in series [3] (Leishmania amazonensis, 6 h, read-out: Estimated IC50 L. amazonensis 6 h) it was 564 µM and 179 µg/mL. The inhibition at 64 µg/mL in series [2] (48 h, read-out: Inhibition of growth of parasites (P. falciparum)) stood at 100%. Besides, the inhibition at 8 µg/mL in series [2] (72 h, read-out: Inhibition of growth of parasites (P. falciparum)) worked out at 100%. In addition, the “Selectivity Index (SI) = CC50/IC50, L. amazonensis” value in series [3] (CC50 peritoneal cells 6 h / IC50 L. amazonensis 6 h) is 1.3. In series [3] (L. amazonensis promastigotes, fold superior to piperidine analogue (IC50 2297.9 μM)), the “Inhibitory activity relative to piperidine analogue (fold)” value was determined as 4.07 fold.

Take `CNC[C@H](O)[C@@H](O)[C@H](O)[C@H](O)CO.[O]=[Sb](=[O])[OH]` [N-metilglucamine, antimoniate of N-metilglucamine, reference compound]: in series [3] (positive control, 4 μg/mL, 6 h incubation), the “Inhibition of the parasites (L. amazonensis)” value turned out to be 55.4%.

Turning to `C[C@H]1[C@H](OC(=O)CCC(=O)O)O[C@@H]2O[C@@]3(C)CC[C@H]4[C@H](C)CC[C@@H]1[C@@]24OO3` [artesunate, reference compound], the inhibition at 0.008 µg/mL in series [2] (48 h incubation, read-out: Inhibition of the parasites (P. falciparum) 48 h) was 79.8%; in series [2] (72 h incubation, read-out: Inhibition of the parasites (P. falciparum) 72 h) it was 90%.

Consider `COc1cc(C=CC(=O)N2CCCCC2)cc(OC)c1OC` [piperidine analogue], for which, in series [3] (previous screening, data not shown, read-out: IC50 on growth of L. amazonensis promastigotes), the IC50 worked out at 2300 µM.

One may read the CC50 as the concentration that lowers cell viability or growth by half. By IC50 is commonly meant the concentration at which inhibition is half-maximal. In general, inhibition refers to how much of the control response was suppressed.

The values above are taken from PMC6130495, “Effect of piplartine and cinnamides on Leishmania amazonensis, Plasmodium falciparum and on peritoneal cells of Swiss mice” (Pharmaceutical Biology, 2017).
